Results published in patent US20080194585A1, “Fungicidal Pyrazine Derivatives” (priority 2005, published 2008).
Marks after values point to notes of the source that are not given here.

Key:
Conditions in all cases: 100 = 100% disease control, 0 = no control
fusarium graminearium = assay: Test I: wheat head scab, preventive spray on wheat seedlings
Description: (the causal agent of wheat head scab) and incubated in a saturated atmosphere at 20° C. for 72 h, and then moved to a growth chamber at 22° C. for 5 days, after which disease ratings were made.

[1] = tested on: Erysiphe graminis f. sp. tritici; assay: Test L: wheat powdery mildew, preventive spray on wheat seedlings
Septoria nodorum = assay: Test H: wheat glum blotch, preventive spray on wheat seedlings
Description: (the causal agent of wheat glum blotch) and incubated in a saturated atmosphere at 20° C. for 48 h, and then moved to a growth chamber at 22° C. for 5 days, after which disease ratings were made.

Botrytis cinerea = assay: Test E: tomato botrytis, preventive spray on tomato seedlings
Rhizoctonia oryzae = assay: Test G: turf brown patch, preventive spray on creeping bent grass seedlings
Description: (the causal agent of turf brown patch) and incubated in a saturated atmosphere at 27° C. for 24 h, and then moved to a growth chamber at 27° C. for 5 days, after which disease ratings were made.

Septoria tritici = assay: Test J: wheat leaf blotch, preventive spray on wheat seedlings; format: in vivo
Description: A dash (-) indicates no test results.

Pythium aphanidermatum = assay: Test A: bluegrass pythium blight, preventive spray on bluegrass seedlings
[2] = tested on: Puccinia recondita f. sp. tritici; assay: Test K: wheat leaf rust, preventive spray on wheat seedlings
Phytophthora infestans = assay: whole plant or invertebrate; format: in vivo
[3] = tested on: Colletotrichum orbiculare; assay: Test B: cucumber Colletotrichum anthracnose, preventive spray on cucumber seedlings
Plasmopara viticola = assay: Test D: grape downy mildew, spray after inoculation of grape seedlings; format: in vivo
Description: Upon removal, disease ratings were made. […] A dash (-) indicates no test results.

Structure (SMILES)	Test I disease control rating (fusarium graminearium; 200 ppm)	Test L disease control rating ([1]; 40 ppm (marked *))	Test H disease control rating (Septoria nodorum; 40 ppm (marked *))	Test E disease control rating (Botrytis cinerea; 40 ppm (marked *))	Test G disease control rating (Rhizoctonia oryzae; 40 ppm (marked *))	Test J disease control rating (Septoria tritici; 40 ppm (marked *))	Test A disease control rating (Pythium aphanidermatum; 200 ppm)	Test K disease control rating ([2]; 40 ppm (marked *))	Test F disease control rating (Phytophthora infestans; 200 ppm)	Test B disease control rating ([3]; 40 ppm (marked *))	Test D disease control rating (Plasmopara viticola; 200 ppm)	other results
CCC(C)Cn1c(-c2c(F)cccc2F)c(Cl)nc(C(=O)NCCO)c1=O (stereo not shown) [compound 349]	0%	0* %	0* %	0* %	0* %	25* %	0%	96* %	0%	0* %	0%	–
CC(C)Cn1c(-c2c(F)cccc2F)c(Cl)nc(-c2cnccn2)c1=O [compound 350]	80%	–	–	–	–	–	80%	–	0%	–	0%	Test L disease control rating ([1]; 200 ppm): 86%; Test H disease control rating (Septoria nodorum; 200 ppm): 98%; Test E disease control rating (Botrytis cinerea; 200 ppm): 98%; Test G disease control rating (Rhizoctonia oryzae; 200 ppm): 99%; Test J disease control rating (Septoria tritici; 200 ppm): 85%; Test K disease control rating ([2]; 200 ppm): 99%; Test B disease control rating ([3]; 200 ppm): 0%
O=c1c(-n2cccn2)nc(Cl)c(-c2c(F)cc(F)cc2F)n1-c1cccc(Br)c1 [compound 351]	78%	100* %	99* %	99* %	0* %	100* %	0%	100* %	0%	99* %	0%	–
O=c1c(-n2cccn2)nc(Cl)c(-c2c(F)cc(F)cc2F)n1-c1ccc(Br)cc1 [compound 352]	63%	81* %	97* %	99* %	31* %	100* %	0%	99* %	0%	99* %	0%	–
O=c1c(-n2cccn2)nc(Cl)c(-c2c(F)cc(F)cc2F)n1-c1cccc(C(F)(F)F)c1 [compound 353]	0%	79* %	98* %	98* %	0* %	100* %	0%	91* %	0%	16* %	0%	–
O=c1c(-n2cccn2)nc(Cl)c(-c2c(F)cc(F)cc2F)n1-c1ccc(C(F)(F)F)cc1 [compound 354]	0%	48* %	91* %	95* %	47* %	100* %	0%	97* %	0%	9* %	0%	–
Cc1nc(-c2ccccn2)c(=O)n(-c2ccccc2)c1-c1c(F)cccc1F [compound 359]	–	0* %	0* %	0* %	0* %	85* %	–	0* %	–	0* %	–	Test I disease control rating (fusarium graminearium; 40 ppm (marked *)): 65* %; Test A disease control rating (Pythium aphanidermatum; 40 ppm (marked *)): 81* %; Test F disease control rating (Phytophthora infestans; 40 ppm (marked *)): 0* %; Test D disease control rating (Plasmopara viticola; 40 ppm (marked *)): 8* %
O=c1c(-n2cccn2)nc(Cl)c(-c2c(F)cccc2F)n1-c1ccccc1Br [compound 360]	86%	99* %	100* %	99* %	65* %	100* %	0%	100* %	0%	0* %	0%	–
O=c1c(-n2cccn2)nc(Cl)c(-c2c(F)cccc2F)n1C1CC1 [compound 361]	0%	0* %	98* %	92* %	31* %	3* %	0%	83* %	0%	0* %	0%	–
O=c1c(-n2cccn2)nc(Cl)c(-c2c(F)cccc2F)n1C1CC1c1ccccc1 (stereo not shown) [compound 362]	0%	0* %	0* %	0* %	0* %	0* %	0%	0* %	0%	0* %	0%	–
O=c1c(-n2cccn2)nc(Cl)c(-c2c(F)cccc2F)n1C1CCC1 [compound 363]	0%	99* %	100* %	99* %	93* %	59* %	0%	100* %	0%	0* %	0%	–
